Source: ChEMBL document CHEMBL4725475, “Discovery of Potent and Selective 7-Azaindole Isoindolinone-Based PI3Kγ Inhibitors” (ACS Med Chem Lett, 2020)
One block for each molecule: values may come before it.

How the values were obtained:
[1] = molecular target: T1, Phosphatidylinositol 4,5-bisphosphate 3-kinase catalytic subunit gamma isoform (Homo sapiens, UniProt P48736); experiment: Inhibition of PI3K p120gamma (unknown origin) using phosphatidylinositol 4,5-bisphosphate as substrate in presence of ATP incubated for 60 mins by ADP-Glo assay
T1 sequence (P48736 whole entry, canonical isoform): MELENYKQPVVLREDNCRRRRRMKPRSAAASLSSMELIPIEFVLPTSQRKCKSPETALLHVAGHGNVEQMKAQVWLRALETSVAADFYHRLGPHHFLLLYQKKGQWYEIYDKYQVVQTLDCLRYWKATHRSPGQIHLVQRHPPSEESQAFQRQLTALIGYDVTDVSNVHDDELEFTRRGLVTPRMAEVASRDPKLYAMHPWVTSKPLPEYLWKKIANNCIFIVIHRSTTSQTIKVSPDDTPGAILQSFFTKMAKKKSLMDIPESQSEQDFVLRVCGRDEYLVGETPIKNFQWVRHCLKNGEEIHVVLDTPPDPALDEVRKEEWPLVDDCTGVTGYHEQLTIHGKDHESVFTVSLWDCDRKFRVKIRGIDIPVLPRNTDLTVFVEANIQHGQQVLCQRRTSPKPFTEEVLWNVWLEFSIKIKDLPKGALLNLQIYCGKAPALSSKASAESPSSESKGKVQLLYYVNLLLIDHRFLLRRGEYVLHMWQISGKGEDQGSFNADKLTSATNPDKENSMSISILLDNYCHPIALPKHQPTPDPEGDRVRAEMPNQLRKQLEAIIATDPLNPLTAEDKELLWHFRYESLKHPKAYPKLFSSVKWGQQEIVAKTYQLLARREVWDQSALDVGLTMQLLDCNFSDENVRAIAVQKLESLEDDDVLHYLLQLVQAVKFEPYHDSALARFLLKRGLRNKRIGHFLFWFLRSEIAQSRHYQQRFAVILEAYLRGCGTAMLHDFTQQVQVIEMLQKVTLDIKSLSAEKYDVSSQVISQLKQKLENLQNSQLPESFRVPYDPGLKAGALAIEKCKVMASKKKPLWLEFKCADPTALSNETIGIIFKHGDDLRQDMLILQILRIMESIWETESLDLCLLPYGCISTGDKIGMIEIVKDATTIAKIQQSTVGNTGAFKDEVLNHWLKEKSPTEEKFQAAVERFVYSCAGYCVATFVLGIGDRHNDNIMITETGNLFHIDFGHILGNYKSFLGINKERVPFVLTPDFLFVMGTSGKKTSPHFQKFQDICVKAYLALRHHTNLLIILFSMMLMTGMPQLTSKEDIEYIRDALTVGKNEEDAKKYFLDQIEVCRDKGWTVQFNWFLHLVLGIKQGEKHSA

Homo sapiens [2] = species: Homo sapiens; experiment: Selectivity index, ratio of inhibition for PI3Kalpha (unknown origin) to inhibition for PI3K p120 gamma (unknown origin) using phosphatidylinositol 4,5-bisphosphate as substrate in presence of ATP incubated for 60 mins by ADP-Glo assay
Homo sapiens [3] = species: Homo sapiens; experiment: Selectivity index, ratio of inhibition for PI3Kdelta (unknown origin) to inhibition for PI3K p120 gamma (unknown origin) using phosphatidylinositol 4,5-bisphosphate as substrate in presence of ATP incubated for 60 mins by ADP-Glo assay
[4] = molecular target: T1, Phosphatidylinositol 4,5-bisphosphate 3-kinase catalytic subunit gamma isoform; experiment: Inhibition of PI3Kgamma in human THP-1 cells assessed as reduction in Akt phosphorylation at S473 residue incubated for 60 mins measured after 120 mins by alphalisa assay; assay type: cell-based
[5] = Intrinsic clearance in cryopreserved human hepatocytes assessed as per million cells at 0.5 uM by LC-MS/MS analysis; assay type: ADME, cell-based, Hepatocyte
[6] = Intrinsic clearance in rat hepatocytes assessed as per million cells; assay type: ADME, cell-based, Hepatocyte
[7] = Clearance in Sprague-Dawley rat at 0.25 mg/kg, iv measured upto 8 hrs by LC/MS/MS analysis; assay type: ADME, organism-based; details: in vivo
Cytochrome P450 1A2 = molecular target: T2, Cytochrome P450 1A2 (Homo sapiens, UniProt P05177); experiment: Inhibition of CYP1A2 (unknown origin) using phenacetin as substrate measured after 5 to 20 mins in presence of NADPH by LC-MS/MS analysis; assay type: ADME
T2 sequence (P05177 whole entry): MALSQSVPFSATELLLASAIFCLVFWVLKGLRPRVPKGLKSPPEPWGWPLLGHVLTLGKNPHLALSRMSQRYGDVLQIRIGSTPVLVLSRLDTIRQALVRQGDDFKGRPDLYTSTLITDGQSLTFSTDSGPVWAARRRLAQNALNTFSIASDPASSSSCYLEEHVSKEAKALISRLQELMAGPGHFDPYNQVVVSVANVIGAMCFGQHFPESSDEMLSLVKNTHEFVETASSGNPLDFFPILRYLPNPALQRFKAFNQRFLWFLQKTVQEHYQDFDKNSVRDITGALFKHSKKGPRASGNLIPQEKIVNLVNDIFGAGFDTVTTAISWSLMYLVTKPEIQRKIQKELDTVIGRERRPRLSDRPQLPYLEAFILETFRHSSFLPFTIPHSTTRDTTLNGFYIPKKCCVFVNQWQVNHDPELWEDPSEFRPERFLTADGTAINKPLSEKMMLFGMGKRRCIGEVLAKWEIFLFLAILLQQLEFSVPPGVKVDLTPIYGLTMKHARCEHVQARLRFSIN

Cytochrome P450 2D6 = Cytochrome P450 2D6 (Homo sapiens, UniProt P10635); experiment: Inhibition of CYP2D6 (unknown origin) using diclofenac as substrate measured after 5 to 20 mins in presence of NADPH by LC-MS/MS analysis; assay type: ADME
Sequence of Cytochrome P450 2D6 (P10635 whole entry): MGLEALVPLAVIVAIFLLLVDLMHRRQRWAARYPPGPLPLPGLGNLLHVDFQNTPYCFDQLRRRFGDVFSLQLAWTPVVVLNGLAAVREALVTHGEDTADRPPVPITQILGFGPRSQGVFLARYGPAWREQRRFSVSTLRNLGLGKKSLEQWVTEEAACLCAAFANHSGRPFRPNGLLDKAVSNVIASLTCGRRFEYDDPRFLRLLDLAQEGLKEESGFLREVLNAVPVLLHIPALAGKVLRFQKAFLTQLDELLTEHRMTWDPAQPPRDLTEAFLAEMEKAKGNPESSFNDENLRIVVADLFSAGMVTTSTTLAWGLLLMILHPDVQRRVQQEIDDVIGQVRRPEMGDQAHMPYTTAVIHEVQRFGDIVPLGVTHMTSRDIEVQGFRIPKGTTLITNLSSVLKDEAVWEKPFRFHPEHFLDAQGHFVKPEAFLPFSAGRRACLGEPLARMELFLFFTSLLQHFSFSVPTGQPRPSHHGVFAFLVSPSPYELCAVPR

Cytochrome P450 2C9 = Cytochrome P450 2C9 (Homo sapiens, UniProt P11712); experiment: Inhibition of CYP2C9 (unknown origin) using diclofenac as substrate measured after 5 to 20 mins in presence of NADPH by LC-MS/MS analysis; assay type: ADME
Sequence of Cytochrome P450 2C9 (P11712 whole entry): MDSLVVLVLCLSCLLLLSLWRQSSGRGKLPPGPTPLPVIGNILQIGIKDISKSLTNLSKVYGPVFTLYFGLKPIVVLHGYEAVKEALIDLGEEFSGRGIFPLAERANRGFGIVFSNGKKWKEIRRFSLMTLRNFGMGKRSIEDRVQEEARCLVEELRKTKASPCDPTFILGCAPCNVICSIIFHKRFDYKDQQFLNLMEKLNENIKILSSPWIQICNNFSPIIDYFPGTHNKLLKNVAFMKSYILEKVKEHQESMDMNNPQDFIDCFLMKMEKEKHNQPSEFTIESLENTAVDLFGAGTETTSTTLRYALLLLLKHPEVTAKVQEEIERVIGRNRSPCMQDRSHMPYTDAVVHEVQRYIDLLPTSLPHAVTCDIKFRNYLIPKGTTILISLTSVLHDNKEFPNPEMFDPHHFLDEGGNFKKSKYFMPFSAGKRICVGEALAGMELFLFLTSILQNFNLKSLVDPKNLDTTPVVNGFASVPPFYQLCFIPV

Cytochrome P450 2C19 = Cytochrome P450 2C19 (Homo sapiens, UniProt P33261); experiment: Inhibition of CYP2C19 (unknown origin) using S-mephenytoin as substrate measured after 5 to 20 mins in presence of NADPH by LC-MS/MS analysis; assay type: ADME
Sequence of Cytochrome P450 2C19 (P33261 whole entry): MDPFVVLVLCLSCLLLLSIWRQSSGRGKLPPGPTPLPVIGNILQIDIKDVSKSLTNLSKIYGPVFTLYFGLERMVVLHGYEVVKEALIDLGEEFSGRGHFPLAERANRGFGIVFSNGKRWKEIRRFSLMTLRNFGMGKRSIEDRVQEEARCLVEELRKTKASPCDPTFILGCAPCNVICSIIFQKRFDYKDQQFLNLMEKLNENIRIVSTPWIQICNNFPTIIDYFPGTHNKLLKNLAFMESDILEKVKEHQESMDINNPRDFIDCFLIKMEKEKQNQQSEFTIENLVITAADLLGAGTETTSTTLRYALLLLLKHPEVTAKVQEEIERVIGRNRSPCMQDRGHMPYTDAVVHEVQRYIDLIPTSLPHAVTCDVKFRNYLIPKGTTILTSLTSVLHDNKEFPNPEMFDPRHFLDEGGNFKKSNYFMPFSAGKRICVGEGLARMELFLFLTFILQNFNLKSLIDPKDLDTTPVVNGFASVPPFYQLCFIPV

Cytochrome P450 3A4 = Cytochrome P450 3A4 (Homo sapiens, UniProt P08684); experiment: Inhibition of CYP3A4 (unknown origin) using midazolam as substrate measured after 5 to 20 mins in presence of NADPH by LC-MS/MS analysis; assay type: ADME
Sequence of Cytochrome P450 3A4 (P08684 whole entry): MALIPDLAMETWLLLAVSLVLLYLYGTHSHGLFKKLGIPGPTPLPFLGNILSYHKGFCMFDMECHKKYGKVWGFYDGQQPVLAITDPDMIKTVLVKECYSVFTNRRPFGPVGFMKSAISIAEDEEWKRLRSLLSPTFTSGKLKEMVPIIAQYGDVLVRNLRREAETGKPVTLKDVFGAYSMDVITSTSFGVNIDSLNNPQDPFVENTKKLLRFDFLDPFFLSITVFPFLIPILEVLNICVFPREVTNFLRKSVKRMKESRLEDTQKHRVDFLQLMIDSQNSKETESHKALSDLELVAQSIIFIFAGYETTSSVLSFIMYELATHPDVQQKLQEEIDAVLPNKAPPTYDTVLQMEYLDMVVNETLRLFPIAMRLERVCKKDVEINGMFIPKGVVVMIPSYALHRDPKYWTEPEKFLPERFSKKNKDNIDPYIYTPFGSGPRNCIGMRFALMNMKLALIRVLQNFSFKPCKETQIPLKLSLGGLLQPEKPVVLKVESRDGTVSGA

[8] = Apparent permeability in human Caco2 cells; assay type: ADME, cell-based; details: Caco-2
[9] = Efflux ratio of permeability in human Caco2 cells; assay type: ADME, cell-based; details: Caco-2

Compound: Cc1cc(-c2c[nH]c3ncc(-c4cc5c(c(C(F)(F)F)c4)C(=O)N([C@@H](C)C4CC4)C5)cc23)cc(C)c1C(=O)O
- IC50 [1]: 0.0028 µM
- Selectivity ratio (Homo sapiens [2]): 257
- Selectivity ratio (Homo sapiens [3]): 84
- IC50 [4]: 0.03 µM
- CLH [5]: 1.8 µL/min/1e6 cells
- CLH [6]: < 1.2 µL/min/1e6 cells
- clearance [7]: 467 mL/min/kg

Compound: Cc1cc(-c2c[nH]c3ncc(-c4cc(C)c5c(c4)CN([C@@H](C)C4CC4)C5=O)cc23)ccc1C(=O)O
- IC50 [1]: 0.0028 µM
- Selectivity ratio (Homo sapiens [2]): 433
- Selectivity ratio (Homo sapiens [3]): 505
- IC50 [4]: 0.078 µM
- CLH [5]: 19 µL/min/1e6 cells
- CLH [6]: 51 µL/min/1e6 cells

Compound: Cc1cc(-c2cnc3[nH]cc(-c4ccc(CC(=O)O)cc4)c3c2)cc2c1C(=O)N([C@@H](C)C1CC1)C2
- IC50 [1]: 0.0026 µM
- Selectivity ratio (Homo sapiens [2]): 878
- Selectivity ratio (Homo sapiens [3]): 872
- IC50 [4]: 0.16 µM
- CLH [5]: 6.9 µL/min/1e6 cells
- CLH [6]: 17 µL/min/1e6 cells

Compound: Cc1cc(-c2cnc3[nH]cc(-c4ccc(C5(C(=O)O)CC5)cc4)c3c2)cc2c1C(=O)N([C@@H](C)C1CC1)C2
- IC50 [1]: 0.0033 µM
- Selectivity ratio (Homo sapiens [2]): 863
- Selectivity ratio (Homo sapiens [3]): 1400
- IC50 [4]: 0.15 µM
- CLH [5]: 1.7 µL/min/1e6 cells
- CLH [6]: 16 µL/min/1e6 cells
- clearance [7]: 30 mL/min/kg

Compound: Cc1cc(-c2cnc3[nH]cc(-c4ccc(C(=O)O)cc4)c3c2)cc2c1C(=O)N([C@@H](C)C1CC1)C2
- IC50 [1]: 0.0025 µM
- Selectivity ratio (Homo sapiens [2]): 259
- Selectivity ratio (Homo sapiens [3]): 136
- IC50 [4]: 0.14 µM
- CLH [5]: 24 µL/min/1e6 cells
- CLH [6]: 54 µL/min/1e6 cells
- clearance [7]: 183 mL/min/kg
- Papp [8]: 1.07 ×10⁻⁶ cm/s
- efflux ratio [9]: 46.6

Compound: C[C@@H](C1CC1)N1Cc2cc(-c3cnc4[nH]cc(-c5cnn(C)c5)c4c3)cc(C#N)c2C1=O
- IC50 [1]: 0.0037 µM
- Selectivity ratio (Homo sapiens [2]): 1060
- Selectivity ratio (Homo sapiens [3]): 244
- IC50 [4]: 0.17 µM

Compound: Cc1cc(-c2cnc3[nH]cc(-c4cnn(C)c4)c3c2)cc2c1C(=O)N([C@@H](C)C1CC1)C2
- IC50 [1]: 0.00326 µM
- Selectivity ratio (Homo sapiens [2]): 898
- Selectivity ratio (Homo sapiens [3]): 379
- IC50 [4]: 0.2 µM

Compound: C[C@@H](C1CC1)N1Cc2cc(-c3cnc4[nH]cc(-c5cnn(C)c5)c4c3)cc(S(=O)(=O)N(C)C)c2C1=O
- IC50 [1]: 0.0026 µM
- Selectivity ratio (Homo sapiens [2]): 254
- Selectivity ratio (Homo sapiens [3]): 159
- IC50 [4]: 0.1 µM

The remaining molecules from weak to strong by IC50 [1], led by results:

- IC50 [1]: 0.0036 µM
- Selectivity ratio (Homo sapiens [2]): 742
- Selectivity ratio (Homo sapiens [3]): 620
- IC50 [4]: 0.11 µM
- CLH [5]: 2.6 µL/min/1e6 cells
- CLH [6]: 18 µL/min/1e6 cells
Compound: C[C@@H](C1CC1)N1Cc2cc(-c3cnc4[nH]cc(-c5ccc(C6(C(=O)O)CC6)cc5)c4c3)cc(C(F)(F)F)c2C1=O

- IC50 [1]: 0.0034 µM
- Selectivity ratio (Homo sapiens [2]): 379
- Selectivity ratio (Homo sapiens [3]): 290
- IC50 [4]: 0.22 µM
- IC50 (Cytochrome P450 1A2): 0.7 µM
- IC50 (Cytochrome P450 2D6): 2 µM
- IC50 (Cytochrome P450 2C9): 0.3 µM
- IC50 (Cytochrome P450 2C19): < 0.1 µM
- IC50 (Cytochrome P450 3A4): 0.3 µM
Compound: Cc1cc(-c2cnc3[nH]cc(-c4ccncc4)c3c2)cc2c1C(=O)N([C@@H](C)C1CC1)C2

- IC50 [1]: 0.0033 µM
- Selectivity ratio (Homo sapiens [2]): 539
- Selectivity ratio (Homo sapiens [3]): 397
- IC50 [4]: 0.15 µM
- CLH [5]: 8 µL/min/1e6 cells
- CLH [6]: 23 µL/min/1e6 cells
- clearance [7]: 30 mL/min/kg
Compound: Cc1cc(-c2c[nH]c3ncc(-c4cc(C)c5c(c4)CN([C@@H](C)C4CC4)C5=O)cc23)ccc1CC(=O)O

- IC50 [1]: 0.0022 µM
- Selectivity ratio (Homo sapiens [2]): 1520
- Selectivity ratio (Homo sapiens [3]): 1210
- IC50 [4]: 0.09 µM
- CLH [5]: 20 µL/min/1e6 cells
- CLH [6]: 46 µL/min/1e6 cells
- clearance [7]: 115 mL/min/kg
Compound: Cc1cc(-c2c[nH]c3ncc(-c4cc(C)c5c(c4)CN([C@@H](C)C4CC4)C5=O)cc23)cc(C)c1C(=O)O

- IC50 [1]: 0.0021 µM
- Selectivity ratio (Homo sapiens [2]): 835
- Selectivity ratio (Homo sapiens [3]): 968
- IC50 [4]: 0.18 µM
- CLH [5]: 2.3 µL/min/1e6 cells
- CLH [6]: 27 µL/min/1e6 cells
Compound: Cc1cc(-c2cnc3[nH]cc(-c4ccc(C(C)(C)C(=O)O)cc4)c3c2)cc2c1C(=O)N([C@@H](C)C1CC1)C2

- IC50 [1]: 0.0012 µM
- Selectivity ratio (Homo sapiens [2]): 918
- Selectivity ratio (Homo sapiens [3]): 335
- IC50 [4]: 0.04 µM
- CLH [5]: < 1.2 µL/min/1e6 cells
- CLH [6]: 2 µL/min/1e6 cells
Compound: Cc1cc(-c2c[nH]c3ncc(-c4cc5c(c(C(F)(F)F)c4)C(=O)N([C@@H](C)C4CC4)C5)cc23)ccc1C(=O)O
